Measured values taken from patent US20140377219A1, “HIV INHIBITORS” (New york Blood Center, Inc., priority 2011, published 2014).
Read-outs that look alike come from different tables or passages of the source.

Experiments:
[1] = target: T1, HIV-1MN gp120 and sCD4 (Human immunodeficiency virus type 1 group M subtype B, UniProt P05877); assay: biochemical; format: binding; conditions: read-out: IC50 (μM ± SD), interaction HIV-1MN gp120 and sCD4
T1 construct: recombinant gp120 from HIV-1IIIB and HIV-1MN
Procedure: (§1) The compounds were incubated at graded concentrations with sCD4 (0.25 μg/ml) in the wells of polystyrene plates containing recombinant gp120, which was captured by coating the plates with a sheep anti-gp120 antibody D7324.

[2] = target: T2, HIV-1IIIB gp120 and sCD4 (Human immunodeficiency virus type 1 group M subtype B, UniProt P03375); assay: biochemical; format: binding; conditions: read-out: IC50 (μM ± SD), interaction HIV-1IIIB gp120 and sCD4
T2 construct: recombinant gp120 from HIV-1IIIB and HIV-1MN
Procedure: as §1

[3] = target: gp120 (Human immunodeficiency virus type 1 group M subtype B, UniProt P03375); assay: biochemical; format: binding, HIV-1
[4] = target: CD4 (Homo sapiens, UniProt P01730); assay: Surface plasmon resonance (SPR), ligand CD4; format: binding
[5] = system: primary HIV-1 isolate 93TH060 (subtype E, R5); assay: Neutralization assay in PBMC (p24 ELISA); conditions: read-out: IC50 (μM) ± S.D., inhibitory activity on infection
Procedure: (§4) The inhibitory activity of small molecules on infection by primary HIV-1 isolates was determined. PBMCs were isolated from the blood of healthy donors at the New York Blood Center by standard density-gradient centrifugation using Histopaque-1077 (Sigma-Aldrich). The cells were cultured at 37° C. for 2 h. Non-adherent cells were collected and resuspended at 5×10^6 cells/ml in RPMI-1640 medium containing 10% (v/v) fetal bovine serum, 5 μg/ml of phytohemagglutinin, and 100 U/ml of IL-2 (Sigma-Aldrich), followed by incubation at 37° C. for three days.

[6] = system: HIV-1 BaL; assay: Neutralization assay in PBMC (p24 ELISA)
Procedure: (§5) PBMCs were isolated from the blood of healthy donors at the New York Blood Center by standard density-gradient centrifugation using Histopaque-1077 (Sigma-Aldrich). The cells were cultured at 37° C. for 2 h. Non-adherent cells were collected and resuspended at 5×10^6 cells/ml in RPMI-1640 medium containing 10% (v/v) fetal bovine serum, 5 μg/ml of phytohemagglutinin, and 100 U/ml of IL-2 (Sigma-Aldrich), followed by incubation at 37° C. for three days.

[7] = system: primary HIV-1 isolate 92UG031 (subtype A, R5); assay: Neutralization assay in PBMC (p24 ELISA); conditions: read-out: IC50 (μM) ± S.D., inhibitory activity on infection
Procedure: as §4

[8] = system: HIV-1 89.6; assay: Neutralization assay in PBMC (p24 ELISA); conditions: read-out: IC50 (μM) ± S.D., inhibitory activity on infection
Procedure: as §4

[9] = system: HIV-1 SF2; assay: Multi-cycle neutralization assay in MT-2 cells
[10] = system: primary HIV-1 isolate 92US657 (subtype B, R5); assay: Neutralization assay in PBMC (p24 ELISA); conditions: read-out: IC50 (μM) ± S.D., inhibitory activity on infection
Procedure: as §5

[11] = system: AZT-resistant (AZT-R) HIV-1 strain; assay: Multi-cycle neutralization assay in MT-2 cells
[12] = Cytotoxicity in MT-2 cells (XTT); format: cell-based; conditions: human; MT-2 cells, XTT, four days
In short: (§2)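 XTT viability read-out: MT-2 cells (10^5 cells/ml) incubated with graded compound concentrations four days at 37° C; PBMC at 5×10^5 cells/ml, measured after seven days. CC50 derived from percentage cytotoxicity.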

[13] = system: primary HIV-1 isolate BCF02 (Group 0, R5); assay: Neutralization assay in PBMC (p24 ELISA); conditions: read-out: IC50 (μM) ± S.D., inhibitory activity on infection
Procedure: as §4

[14] = system: primary HIV-1 isolate 93BR029 (clade F, R5); assay: Neutralization assay in PBMC (p24 ELISA); conditions: read-out: IC50 (μM) ± S.D., inhibitory activity on infection
Procedure: as §5

[15] = system: HIV-1 MN; assay: Multi-cycle neutralization assay in MT-2 cells
Procedure: (§6) In brief, 1×10^4 MT-2 cells were infected with HIV-1 at 100 TCID50 (50% tissue culture infective dose) (0.01MOI) in 200 μl medium in the presence or absence of small molecules at graded concentrations and incubated overnight. The culture supernatants were then removed and replaced with fresh media. On the fourth day post-infection, 100 μl of culture supernatants were collected from each well, mixed with equal volume of 5% Triton X-100 and tested for p24 antigen by sandwich-ELISA. The percent inhibition of p24 production and IC50 values were calculated by the GraphPad Prism software (GraphPad Software Inc.).

[16] = system: HIV-1 RF; assay: Multi-cycle neutralization assay in MT-2 cells
[17] = system: HIV-1 SF162; assay: Neutralization assay in PBMC (p24 ELISA); conditions: read-out: IC50 (μM) ± S.D., inhibitory activity on infection
Procedure: as §5

[18] = system: primary HIV-1 isolate RU570 (clade G, R5); assay: Neutralization assay in PBMC (p24 ELISA); conditions: read-out: IC50 (μM) ± S.D., inhibitory activity on infection
Procedure: as §5

[19] = system: laboratory-adapted HIV-1 IIIB strain; assay: microbe, parasite or virus in culture; conditions: Human immunodeficiency virus 1, IIIB, MT2, read-out: IC50 (μM) ± S.D., inhibitory activity on infection
Procedure: as §6

[20] = system: primary HIV-1 isolate 93IN101 (subtype C, R5); assay: Neutralization assay in PBMC (p24 ELISA); conditions: read-out: IC50 (μM) ± S.D., inhibitory activity on infection
Procedure: as §4

[21] = Cytotoxicity in PBMC (XTT); format: cell-based; conditions: human; PBMC, XTT, seven days
Procedure: (§3) Cytotoxicity of small molecules in MT-2 cells and PBMC was measured by the XTT ((sodium 3′-(1-(phenylamino)-carbonyl)-3,4-tetrazolium-bis(4-methoxy-6-nitro)benzene-sulfonic acid hydrate)) method. Briefly, for MT-2 cells, 100 μl of a small molecule at graded concentrations was added to an equal volume of cells (10^5 cells/ml) in 96-well plates followed by incubation at 37° C. for four days, which ran parallel with the neutralization assay in MT-2 (except medium was added instead of virus). In the case of PBMC, 5×10^5 cells/ml was used and the cytotoxicity was measured after seven days. […] The percentage cytotoxicity and the CC50 values were calculated as described above.

[22] = system: PBMC; assay: Cytotoxicity in PBMC (XTT); format: cell-based; conditions: for % toxicity at that dose (number in parenthesis), PBMC: at the dose given as CC50 bound; for CC50: PBMC, XTT, seven days, read-out: PBMC CC50
Procedure: as §3

[23] = system: HIV-1 RF/L-323-12-3 (protease resistant isolate); assay: Multi-cycle neutralization assay in MT-2 cells
[24] = system: MT-2 cells; assay: Cytotoxicity in MT-2 cells (XTT); format: cell-based; conditions: for CC50: MT-2 cells, XTT, four days, read-out: MT-2 Cells CC50
In short: as §2

[25] = system: TZM-bl cells; assay: Cytotoxicity in TZM-bl cells (XTT); format: cell-based
In short: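 TZM-bl cells (10^5/ml) combined with equal volumes of compound at graded concentrations and incubated 3 days at 37° C. Viability measured colorimetrically by XTT tetrazolium dye reduction.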

[26] = system: pNL4-3 gp41 (36G) V38E, N42S (fusion resistant isolate); format: cell-based, HIV-1; conditions: subtype B, MT-2, X4, fusion resistant isolate, read-out: IC50 (μM) ± S.D., inhibitory activity on infection
[27] = system: laboratory-adapted HIV-1 IIIB strain
Procedure: as §6

[28] = system: CD4-dependent virus (ADA); format: cell-based; conditions: ADA in Cf2Th-CD4+-CCR5+ target cells, FIG. 5; read-out: IC50, inhibition of the CD4-dependent virus
[29] = captured ELISA, sCD4 0.25 μg/ml
[30] = Human immunodeficiency virus 1, PBMC
[31] = Human immunodeficiency virus 1, MT2, read-out: IC50 (μM) ± S.D., inhibitory activity on infection
[32] = at the dose given as CC50 bound

CN1C(=O)[C@@H](c2cc(Cl)c(O)c(Cl)c2)NC(=O)[C@@H]2NC(=O)[C@@H](c3cc(Cl)c(O)c(Cl)c3)NC(=O)[C@H](NC(=O)C(=O)c3cc(Cl)c(O)c(Cl)c3)Cc3c[nH]c4c(cccc34)-c3cc2cc(c3O)Oc2ccc(cc2)C[C@H]1C(=O)N[C@@H](C(=O)O)c1ccc(O)cc1 [Chloropeptin]
IC50 [1, 29]: 0.31 ± 0.2 µM
IC50 [2, 29]: 0.31 µM
Kd ([3]; SPR, ligand gp120): 2.5 µM
Rmax (RU) ([3]; SPR, ligand gp120): 1160 RU
koff ([3]; SPR, ligand gp120): 0.011 s⁻¹
Kd [4]: 5.4 µM
Rmax (RU) ([4]; SPR, ligand CD4): 76.8 RU
koff ([4]; read-out: Koff (s − 1)): 0.018 s⁻¹

Cc1nc(C(NC(=O)C(=O)Nc2ccc(Cl)c(F)c2)C2CCCCN2)sc1CO (stereo not shown) [Compound 27, N^1-(4-chloro-3-fluorophenyl)-N^2-((5-(hydroxymethyl)-4-methylthiazol-2-yl)(piperidin-2-yl)methyl)oxalamide.2HCl]
IC50 [5, 30]: 11 ± 0.5 µM
IC50 ([6]; Human immunodeficiency virus 1, BAL, read-out: IC50 (μM) ± S.D., inhibitory activity on infection): 43.8 ± 5 µM
IC50 [7, 30]: 10.7 ± 0.3 µM
IC50 [8, 30]: 3.2 ± 0.7 µM
IC50 [9, 31]: 35.7 ± 2.6 µM
IC50 [10, 30]: 12.5 ± 2.4 µM
IC50 [11, 31]: 6.5 ± 0.9 µM
CC50 at 4 days [12]: ~83 µM
IC50 [13, 30]: ~84 µM
IC50 [14, 30]: 9.9 ± 0.8 µM
IC50 [15, 31]: 18.5 ± 1.8 µM
IC50 [16, 31]: 13.8 ± 2.3 µM
IC50 [17, 30]: 16.3 ± 1.7 µM
IC50 [18, 30]: 15.3 ± 1.7 µM
IC50 [19]: 4.1 ± 0.7 µM
IC50 [20, 30]: ~84 µM
CC50 at 7 days [21]: > 104 µM
% toxicity at that dose (number in parenthesis), PBMC [22]: (40%)
IC50 [23, 31]: 6.2 ± 0.9 µM

Cc1ccc(NC(=O)C(=O)NC(c2nc(C)c(CCO)s2)C2CCCCN2)cc1F.Cl (stereo not shown) [Compound 38, N^1-(3-fluoro-4-methylphenyl)-N^2-((5-(2-hydroxyethyl)-4-methylthiazol-2-yl)(piperidin-2-yl)methyl)oxalamide.HCl]
IC50 ([5]; 93TH060, subtype E, PBMC, R5, primary isolate): 14.7 ± 0.7 µM
IC50 ([6]; read-out: IC50 (μM) ± S.D., inhibitory activity on infection, BaL, subtype B, R5, laboratory strain): 30.3 ± 1.4 µM
IC50 ([7]; 92UG031, subtype A, PBMC, R5, primary isolate): 10.1 ± 1.8 µM
IC50 ([8]; 89.6, subtype B, PBMC, R5X4, laboratory strain): 14.7 ± 1.1 µM
IC50 ([9]; read-out: IC50 (μM) ± S.D., inhibitory activity on infection, SF2, subtype B, MT-2, R5X4, laboratory strain): 27.6 ± 1.7 µM
IC50 ([10]; 92US657, subtype B, PBMC, R5, primary isolate): 6.8 ± 0.7 µM
IC50 ([11]; read-out: IC50 (μM) ± S.D., inhibitory activity on infection, AZT-R, subtype B, MT-2, X4, RT-resistant isolate): 14.5 ± 1.5 µM
CC50 ([24]; listed as NBD-110017): > 87 µM
CC50 [24]: ~85 µM
% toxicity at that dose (number in parenthesis), MT-2 cells [24, 32]: 30%
IC50 ([13]; BCF02, Group 0, PBMC, R5, primary isolate): ~87 µM
IC50 ([14]; 93BR029, subtype F, PBMC, R5, primary isolate): 8.6 ± 0.4 µM
CC50 ([25]; TZM-bl cells, XTT, 3 days, read-out: TZM-bl cells CC50 (μM ± SD)): > 85 µM
% toxicity at that dose (number in parenthesis), TZM-bl cells [25, 32]: 40%
IC50 ([15]; read-out: IC50 (μM) ± S.D., inhibitory activity on infection, MN, subtype B, MT-2, X4, laboratory strain): 14.9 ± 2.6 µM
IC50 ([16]; read-out: IC50 (μM) ± S.D., inhibitory activity on infection, RF, subtype B, MT-2, R5X4, laboratory strain): 12.4 ± 1.4 µM
IC50 ([17]; SF162, subtype B, PBMC, R5, laboratory strain): 16.5 ± 4 µM
IC50 ([18]; RU570, subtype G, PBMC, R5, primary isolate): 15.8 ± 0.9 µM
IC50 ([20]; 93IN101, subtype C, PBMC, R5, primary isolate): > 87 µM
IC50 [26]: 8.4 ± 0.4 µM
CC50 [22]: > 64 µM
% toxicity at that dose (number in parenthesis), PBMC [22]: 0%
IC50 ([23]; read-out: IC50 (μM) ± S.D., inhibitory activity on infection, HIV-1 RF/L-323-12-3, subtype B, MT-2, X4, protease resistant isolate): 10.2 ± 0.4 µM
IC50 ([27]; read-out: IC50 (μM) ± S.D., inhibitory activity on infection, IIIB, subtype B, MT-2, X4, laboratory strain): 5.3 ± 1.7 µM
IC50 ([27]; read-out: MT-2 Cells IC50 (μM ± SD), multi-cycle assay, MT-2 cells, HIV-1 IIIB): 3.7 ± 0.7 µM

CC1(C)CC(NC(=O)C(=O)Nc2ccc(Br)cc2)CC(C)(C)N1 [NBD-557]
IC50 [1]: 4.21 ± 1.1 µM
IC50 [2]: 3.08 ± 0.6 µM
CC50 [24]: 223 µM
Kd [3]: 42 µM
Koff (s − 1) [3]: 4.7 × 10−2 s − 1
Rmax (RU) [3]: 1.48 RU
binding to CD4 ([4]; SPR): not to CD4
IC50 [28]: 13.4 µM
CC50 [22]: 603 µM
